According to patent US20180140578A1, “METHODS AND COMPOSITIONS FOR THE DIAGNOSIS AND SELECTIVE TREATMENT OF CANCER” (Board of Regents of the University of Texas System, priority 2016, published 2018):
Read-outs that look alike come from different tables or passages of the source.

Experiments:
HCC15 = assay: IC50 assay, NSCLC cell lines (Cell Titer Glo, total ATP); assay type: cell-based; details: Homo sapiens
Experimental: (§1) Cells were plated at ˜15% confluence in a media comprising 5% concentration of fetal bovine serum supplemented with RPMI, which included 2 mM L-Glutamine in a 96 well dish. […] Following three days of incubation in a 5% CO2 incubator, the total ATP in each well was quantified using Cell Titer Glo (Promega). […] The solid lines represent the medians.

H838 = assay: as above; assay type: cell-based; details: Homo sapiens
Experimental: as §1

HCC4006 = assay: as above; assay type: cell-based; details: Homo sapiens
Experimental: as §1

H1395 = assay: as above; assay type: cell-based; details: Homo sapiens
Experimental: as §1

H1155 = assay: as above; assay type: cell-based; details: Homo sapiens
Experimental: as §1

H1648 = assay: as above; assay type: cell-based; details: Homo sapiens
Experimental: as §1

H1373 = assay: as above; assay type: cell-based; details: Homo sapiens
Experimental: as §1

A549 = assay: as above; assay type: cell-based; details: Homo sapiens
Experimental: as §1

HCC2450 = assay: as above; assay type: cell-based; details: Homo sapiens
Experimental: as §1

HCC2279 = assay: as above; assay type: cell-based; details: Homo sapiens
Experimental: as §1

HCC1438 = assay: as above; assay type: cell-based; details: Homo sapiens
Experimental: as §1

H2172 = assay: as above; assay type: cell-based; details: Homo sapiens
Experimental: as §1

HCC1359 = assay: as above; assay type: cell-based; details: Homo sapiens
Experimental: as §1

H1944 = assay: as above; assay type: cell-based; details: Homo sapiens
Experimental: as §1

HCC78 = assay: as above; assay type: cell-based; details: Homo sapiens
Experimental: as §1

DCAF15 and RBM39Δ150 [1] = assay: Mass spec quantification of indisulam in RBM39 DCAF15 complex; assay type: binding, human
Excerpt: (§2) RBM39-3xFLAG was immunopurified from HCT-116 cells expressing RBM39-3xFLAG (endogenous tag) using the cryomill procedure. DCAF15-3xFLAG was purified from 293T cells stably expressing DCAF15-3xFLAG through lentiviral transduction. […] Afterwards, beads were washed twice with 1×PBS, 0.1% NP40 and twice with 1×PBS. […] The tolbutamide internal standard (IS) was detected using the transition 269.1 to 169.9 (negative mode; M-H^−). […] The limit of quantitation (lowest quantifiable point on the standard curve with accuracy within 20% upon back calculation and at least 3-fold above background) for this method was 50 pg/ml.

DCAF15 and RBM39Δ150 [2] = target: T1, DCAF15 and RBM39Δ150 (Homo sapiens, UniProt Q14498+Q66K64, P272S); assay: as above; assay type: binding; details: DCAF15 and RBM39Δ150 P272S; 10 μM indisulam
T1 construct: Full-length cDNAs encoding CUL4A, CUL4B, DCAF15, and DDB1 were cloned into pLVX IRES Puro; made in house; host or cells: RBM39Δ150: Sf9 (baculovirus); DCAF15-3xFLAG: anti-FLAG beads from HCT-116 or 293T cells stably expressing it
T1 sequence (Q66K64 whole entry, stated change not applied): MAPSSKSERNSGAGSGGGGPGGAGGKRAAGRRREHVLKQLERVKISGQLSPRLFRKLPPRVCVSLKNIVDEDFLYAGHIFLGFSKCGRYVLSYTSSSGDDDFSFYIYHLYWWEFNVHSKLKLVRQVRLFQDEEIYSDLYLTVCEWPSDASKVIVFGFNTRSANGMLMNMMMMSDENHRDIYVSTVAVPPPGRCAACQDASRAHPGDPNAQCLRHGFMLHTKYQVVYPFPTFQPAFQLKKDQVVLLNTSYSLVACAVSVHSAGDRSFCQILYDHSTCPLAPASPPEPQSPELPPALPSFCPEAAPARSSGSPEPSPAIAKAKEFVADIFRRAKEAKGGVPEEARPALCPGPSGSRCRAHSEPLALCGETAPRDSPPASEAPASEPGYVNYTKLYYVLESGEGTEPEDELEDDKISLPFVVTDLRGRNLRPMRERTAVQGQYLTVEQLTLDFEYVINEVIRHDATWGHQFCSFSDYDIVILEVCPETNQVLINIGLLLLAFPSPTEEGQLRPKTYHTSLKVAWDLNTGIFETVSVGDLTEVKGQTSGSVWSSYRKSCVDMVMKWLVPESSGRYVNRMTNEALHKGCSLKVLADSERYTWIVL
T1 sequence (Q14498 151-530 P272S, stated change not applied): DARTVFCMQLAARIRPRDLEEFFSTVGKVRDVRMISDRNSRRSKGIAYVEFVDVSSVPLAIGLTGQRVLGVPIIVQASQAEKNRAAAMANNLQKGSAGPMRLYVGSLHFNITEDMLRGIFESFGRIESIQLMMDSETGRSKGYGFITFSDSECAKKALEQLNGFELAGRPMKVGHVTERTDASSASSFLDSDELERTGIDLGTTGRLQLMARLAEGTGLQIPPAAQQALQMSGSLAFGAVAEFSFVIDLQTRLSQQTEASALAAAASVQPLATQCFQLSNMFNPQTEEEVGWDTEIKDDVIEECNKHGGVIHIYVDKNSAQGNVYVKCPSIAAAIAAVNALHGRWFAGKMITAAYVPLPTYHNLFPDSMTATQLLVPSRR
T1 sequence (Q16531 2-1140 partner, stated change not applied): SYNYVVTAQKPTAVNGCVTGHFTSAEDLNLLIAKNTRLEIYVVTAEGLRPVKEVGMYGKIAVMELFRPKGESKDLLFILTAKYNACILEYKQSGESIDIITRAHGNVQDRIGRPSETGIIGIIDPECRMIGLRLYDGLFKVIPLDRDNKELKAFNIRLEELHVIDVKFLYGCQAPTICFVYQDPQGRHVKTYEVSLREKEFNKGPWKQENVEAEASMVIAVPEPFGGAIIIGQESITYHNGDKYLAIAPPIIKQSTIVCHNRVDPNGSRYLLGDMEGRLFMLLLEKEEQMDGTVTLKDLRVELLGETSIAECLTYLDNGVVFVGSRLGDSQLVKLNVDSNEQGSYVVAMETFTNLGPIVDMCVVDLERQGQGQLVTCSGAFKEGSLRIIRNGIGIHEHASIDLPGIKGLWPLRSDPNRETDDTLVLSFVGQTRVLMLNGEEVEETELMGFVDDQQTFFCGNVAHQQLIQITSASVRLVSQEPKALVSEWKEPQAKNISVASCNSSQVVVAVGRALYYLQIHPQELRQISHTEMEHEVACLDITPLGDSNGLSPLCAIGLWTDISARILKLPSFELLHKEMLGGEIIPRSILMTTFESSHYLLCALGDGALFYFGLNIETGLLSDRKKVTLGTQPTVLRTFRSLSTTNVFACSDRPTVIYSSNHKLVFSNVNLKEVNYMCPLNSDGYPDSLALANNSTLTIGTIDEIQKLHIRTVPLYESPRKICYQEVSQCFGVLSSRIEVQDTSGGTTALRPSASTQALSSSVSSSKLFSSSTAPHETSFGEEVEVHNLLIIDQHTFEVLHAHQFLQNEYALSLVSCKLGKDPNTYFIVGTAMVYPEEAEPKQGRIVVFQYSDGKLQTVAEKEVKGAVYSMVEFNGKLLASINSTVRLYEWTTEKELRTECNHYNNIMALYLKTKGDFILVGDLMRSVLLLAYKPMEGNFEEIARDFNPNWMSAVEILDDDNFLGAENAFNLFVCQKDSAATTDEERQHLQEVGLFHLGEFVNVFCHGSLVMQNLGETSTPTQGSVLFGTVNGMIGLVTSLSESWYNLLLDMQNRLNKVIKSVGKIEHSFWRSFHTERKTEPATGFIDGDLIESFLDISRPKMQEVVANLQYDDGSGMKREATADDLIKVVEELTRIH
Excerpt: as §2

DCAF15 and RBM39Δ150 [3] = target: T2, DCAF15 and RBM39Δ150 (Homo sapiens, UniProt Q14498+Q66K64); assay: as above; assay type: binding; details: DCAF15 and wild type RBM39Δ150; 10 μM indisulam
T2 construct: Full-length cDNAs encoding CUL4A, CUL4B, DCAF15, and DDB1 were cloned into pLVX IRES Puro; made in house; host or cells: RBM39Δ150: Sf9 (baculovirus); DCAF15-3xFLAG: anti-FLAG beads from HCT-116 or 293T cells stably expressing it
T2 sequence (Q66K64 whole entry, stated change not applied): as the sequence (Q66K64 whole entry, stated change not applied) above
T2 sequence (Q14498 151-530, stated change not applied): as the sequence (Q14498 151-530 P272S, stated change not applied) above, with S122P counted along it
T2 sequence (Q16531 2-1140 partner): as the sequence (Q16531 2-1140 partner, stated change not applied) above
Excerpt: as §2

[4] = read-out: Indisulam IC50 (log 10) (converted), U2AF1 WT
[5] = read-out: Indisulam IC50, U2AF1 WT

Question: For `NS(=O)(=O)c1ccc(S(=O)(=O)Nc2cccc3c(Cl)c[nH]c23)cc1` [Indisulam, indisulam], which IC50 (HCC15; [4]) is on record?
Answer: 6.32 µM

Question: And the IC50 (HCC15; [5])?
Answer: 6.32 µM

Question: What about the IC50 (H838; NCI-H838, read-out: Indisulam IC50 (log 10) (converted), U2AF1 WT) of the same molecule?
Answer: 1.03 µM

Question: What about the IC50 (H838; NCI-H838, read-out: Indisulam IC50, U2AF1 WT) of the same molecule?
Answer: 1.03 µM

Question: What about the IC50 (HCC4006; [4]) of the same molecule?
Answer: 0.735 µM

Question: And the IC50 (HCC4006; [5])?
Answer: 0.735 µM

Question: What about the IC50 (H1395; NCI-H1395, read-out: Indisulam IC50 (log 10) (converted), U2AF1 WT) of the same molecule?
Answer: 10.9 µM

Question: And the IC50 (H1395; NCI-H1395, read-out: Indisulam IC50, U2AF1 WT)?
Answer: 10.9 µM

Question: And the IC50 (H1155; NCI-H1155, read-out: Indisulam IC50 (log 10) (converted), U2AF1 WT)?
Answer: 0.242 µM

Question: What about the IC50 (H1155; NCI-H1155, read-out: Indisulam IC50, U2AF1 WT) of the same molecule?
Answer: 0.242 µM

Question: What about the IC50 (H1648; NCI-H1648, read-out: Indisulam IC50 (log 10) (converted), U2AF1 WT) of the same molecule?
Answer: 16.8 µM

Question: And the IC50 (H1648; NCI-H1648, read-out: Indisulam IC50, U2AF1 WT)?
Answer: 16.8 µM

Question: And the IC50 (H1373; NCI-H1373, read-out: Indisulam IC50 (log 10) (converted), U2AF1 S34F)?
Answer: 0.23 µM

Question: What about the IC50 (H1373; NCI-H1373, read-out: Indisulam IC50, U2AF1 S34F) of the same molecule?
Answer: 0.23 µM

Question: What about the IC50 (A549; [4]) of the same molecule?
Answer: 46.6 µM

Question: And the IC50 (A549; [5])?
Answer: 46.6 µM

Question: What about the IC50 (HCC2450; [4]) of the same molecule?
Answer: 135 µM

Question: What about the IC50 (HCC2450; [5]) of the same molecule?
Answer: 135 µM

Question: What about the IC50 (HCC2279; [4]) of the same molecule?
Answer: 5.68 µM

Question: And the IC50 (HCC2279; [5])?
Answer: 5.68 µM

Question: And the IC50 (HCC1438; [4])?
Answer: 22.7 µM

Question: What about the IC50 (HCC1438; [5]) of the same molecule?
Answer: 22.7 µM

Question: And the IC50 (H2172; NCI-H2172, read-out: Indisulam IC50 (log 10) (converted), U2AF1 WT)?
Answer: 20.5 µM

Question: What about the IC50 (H2172; NCI-H2172, read-out: Indisulam IC50, U2AF1 WT) of the same molecule?
Answer: 20.5 µM

Question: What about the IC50 (HCC1359; read-out: Indisulam IC50 (log 10) (converted), U2AF1 WT (listed twice)) of the same molecule?
Answer: ≥ 50 µM

Question: What about the IC50 (HCC1359; read-out: Indisulam IC50, U2AF1 WT (listed twice)) of the same molecule?
Answer: ≥ 50 µM

Question: And the IC50 (H1944; NCI-H1944, read-out: Indisulam IC50 (log 10) (converted), U2AF1 WT)?
Answer: 163 µM

Question: And the IC50 (H1944; NCI-H1944, read-out: Indisulam IC50, U2AF1 WT)?
Answer: 163 µM

Question: What about the IC50 (HCC78; read-out: Indisulam IC50 (log 10) (converted), U2AF1 S34F) of the same molecule?
Answer: 1.15 µM

Question: What about the IC50 (HCC78; read-out: Indisulam IC50, U2AF1 S34F) of the same molecule?
Answer: 1.15 µM

Question: What about the “amount of indisulam in complex (LC-MS)” value (DCAF15 and RBM39Δ150 [1]; DCAF15 and M265L or E271Q variants of RBM39Δ150) of the same molecule?
Answer: no indisulam was detected

Question: What about the “amount of indisulam (LC-MS)” value (DCAF15 and RBM39Δ150 [1]; either DCAF15 or RBM39 alone) of the same molecule?
Answer: no indisulam was identified

Question: And the “amount of indisulam in complex (LC-MS)” value (DCAF15 and RBM39Δ150 [2])?
Answer: lower levels of indisulam

Question: And the “amount of indisulam in complex (LC-MS)” value (DCAF15 and RBM39Δ150 [3])?
Answer: highest levels of indisulam
